Data taken from patent publication US20030228583A1, “Biomarkers of liver response” (priority 2001, published 2003).

Test system: Liver Response-Associated Features (LRFs) in liver tissue
Experiment: Proteome analysis (2D electrophoresis, Reference Protocol) of liver tissue of drug-treated vs control animals: relative abundance of LRFs
Description: Samples from animals treated with various drugs at various timepoints and various dose levels can be collected, prepared, and analysed as described herein. […] Using the following procedure, proteins in liver tissue and serum/plasma from 5 control animals and 5 animals having liver response induced through drug treatment were separated by isoelectric focusing followed by SDS-PAGE and analyzed. Samples were taken and analyzed at three different time points designated “early”, “full manifestation” and “late”. Parts 6.1.1 to 6.1.9 (inclusive) of the procedure set forth below are hereby designated as the “Reference Protocol”.
At the time of necropsy, approximately 2 g section of the liver's median lobe was removed to a conical tube and quick-frozen in liquid nitrogen. The frozen liver section was then pulverized for 1 minute using a freezer mill as follows:
Approximately 10-20 mg pulverized liver was solubilized with 10 ul protease inhibitor and 1.5 ml lysis solution and vortexed well. The sample was allowed to remain at room temperature for 10 minutes, was vortexed again, and then pelleted using an Eppendorf 5417R Centrifuge for 10 minutes at 13000g at 15 EC. The resulting supernatant was frozen at −80° C.
The sample was heated at 95° C. for 5 mins, and then allowed to cool to 20° C. 125 μl of the following buffer was then added to the sample:
This mixture was vortexed, and centrifuged at 13000 rpm for 5 mins at 15° C., and the supernatant was analysed by isoelectric focusing. An assay for protein content was carried out on the final sample (Pierce BCA Cat #23225).
Isoelectric focusing (IEF), was performed using the Immobiline® DryStrip Kit (Pharmacia BioTech), following the procedure described in the manufacturer's instructions, see Instructions for Immobilineg DryStrip Kit, Pharmacia, #18-1038-63, Edition AB (incorporated herein by reference in its entirety). Immobilized pH Gradient (IPG) strips (18 cm, pH 3-10 non-linear strips; Pharmacia Cat. #17-1235-01) were rehydrated overnight at 20° C. in a solution of 8M urea, 2% (w/v) CHAPS, 10 mM DTT, 2% (v/v) Resolytes 3.5-10, as described in the Immobiline DryStrip Users Manual. For IEF, 50 μl of supernatant (prepared as above) was loaded onto a strip, with the cup-loading units being placed at the basic end of the strip. The loaded gels were then covered with mineral oil (Pharmacia 17-3335-01) and a voltage was immediately applied to the strips according to the following profile, using a Pharmacia EPS3500XL power supply (Cat 19-3500-01):
After the final 19 hr step, the strips were immediately removed and immersed for 10 mins at 20° C. in a first solution of the following composition: 6M urea; 2% (w/v) DTT; 2% (w/v) SDS; 30% (v/v) glycerol (Fluka 49767); 0.05M Tris/HCl, pH 6.8 (Sigma Cat T-1503). The strips were removed from the first solution and immersed for 10 mins at 20° C. in a second solution of the following composition: 6M urea; 2% (w/v) iodoacetamide (Sigma 1-6125); 2% (w/v) SDS; 30% (v/v) glycerol; 0.05M Tris/HCl, pH 6.8.
A 9-16% linear polyacrylamide gradient was cast, extending up to a point 2 cm below the level of the notch in the front plate, using the Angelique gradient casting system (Large Scale Biology). Stock solutions were as follows. Acrylamide (40% in water) was from Serva (Cat. #10677). […] The gel buffer was 0.375M Tris/HCl, pH 8.8. The polymerization catalyst was 0.05% (v/v) TEMED (BioRad 161-0801), and the initiator was 0.1% (w/v) APS (BioRad 161-0700). No SDS was included in the gel and no stacking gel was used. The cast gels were allowed to polymerize at 20° C. overnight, and then stored at 4° C. in sealed polyethylene bags with 6 ml of gel buffer, and were used within 4 weeks.
A solution of 0.5% (w/v) agarose (Fluka Cat 05075) was prepared in running buffer (0.025 M Tris, 0.198 M glycine (Fluka 50050), 1% (w/v) SDS, supplemented by a trace of bromophenol blue). The agarose suspension was heated to 70° C. with stirring, until the agarose had dissolved.

## CCC1(c2ccccc2)C(=O)NC(=O)NC1=O [phenobarbital]
Early, P 0.0075
  Fold Change LRF-24: 3.34 fold
Early, P 0.0212
  Fold Change LRF-17: 1.61 fold
Early, P 0.0216
  Fold Change LRF-26: 1.33 fold
Early, P 0.0254
  Fold Change LRF-37: 3.98 fold
Late, P 0.0075
  Fold Change LRF-112: 5.38 fold
  Fold Change LRF-115: 3.16 fold
Middle, P 0.0122
  Fold Change LRF-85: 1.72 fold
Middle, P 0.0216
  Fold Change LRF-60: 1.67 fold
  Fold Change LRF-80: 1.40 fold
  Fold Change LRF-90: 1.47 fold
Middle, P 0.0345
  Fold Change LRF-66: 1.93 fold
Middle, P 0.0361
  Fold Change LRF-74: 1.42 fold
Middle, P 0.0367
  Fold Change LRF-83: 1.40 fold
